Values joined by “and” are separate entries in the source; they are usually repeats but may differ in a detail not shown here. Identical values can stand only once. Like-named read-outs stand apart in the source and are kept apart here.
Legend:
[1] = system: bovine corneal endothelial cells; test: Incorporation of sulfate, proline, lysine and glycine into ECM (CDP and NCDP); type: cell-based; conditions: eight days after seeding
Procedure: Corneal endothelial cells were seeded at a confluent density and grown as described in Example 5 above. The cells were cultured with or without Halofuginone in the presence of either Na2^35SO4 (FIG. 8A), ^3H-proline (FIG. 8B), ^14C-lysine (FIG. 8C) or ^14C-glycine (FIG. […]). Eight days after seeding, the cell layer was dissolved substantially as described in Example 5 above. The underlying ECM was then either trypsinized to determine the effect of Halofuginone on incorporation of labelled material into total protein, substantially as described in Example 5 above, or subjected to sequential digestions with collagenase and trypsin to evaluate the effect of Halofuginone on both collagenase-digestible proteins (CDP) and non-collagenase digestible proteins (NCDP).

[2] = system: corneal neovascularization; test: Murine corneal angiogenesis model (bFGF pellet); type: in vivo, mice; set-up: VL (maximum vessel length of the neovascularization zone): unit not given here; conditions: 2 μg/mouse/day i.p. for 5 days
Procedure: A murine corneal angiogenesis model was used to evaluate the inhibitory effect of Halofuginone in vivo. The angiogenic factor bFGF was applied into a corneal pocket in a pellet made of a slow release polymer, as described below, and Halofuginone (2 μg/mouse/day) was administered i.p. for 5 consecutive days. The pellets were made of the slow-release polymer Hydron (polyhydroxyethylmethacrylate [polyHEMA], Interferon Sciences, N.J.) containing sucralfate alone, or sucralfate and bGFG. A suspension of sterile saline 10 μg recombinant bFGF plus 10 mg of sucralfate was prepared and speed vacuumed for 5 minutes. To this suspension, 10 μl of 12% Hydron in ethanol was added. The suspension was then deposited onto an autoclave sterilized, 15×15 mm piece of nylon mesh (TETKO, 3-300/50, approximate pore size 0.4×0.4 mm) and embedded between the fibers resulting in a grid of 10×10 squares. Both sides of the mesh were then covered with a thin layer of Hydron to hydrophobically stabilize the pellet during implantation. These layers were allowed to dry on a sterile petri dish for 30 minutes. Subsequently, the fibers of the mesh were pulled apart under a microscope, and about 30-40 uniformly sized pellets of 0.4×0.2×0.2 mm, containing approximately 80-100 ng bGFG per pellet, were collected. Such pellets can be stored frozen at −20° C. for several weeks without loss of bioactivity. C57B⅙ mice of about 7-9 weeks of age were anesthetized with methoxyflurane. The eyes were topically anesthetized with 0.5% proparacaine, and the globe was proposed with a jeweler's forceps. A central, intrastromal linear keratotomy of approximately 0.6 mm length was performed with a surgical blade and a lamellar micropocket was dissected towards the temporal limbus. The temporal extent of the packet was within 0.7-1.0 mm of the limbus. A single pellet was then placed on the corneal surface at the base of the pocket with jeweler's forceps, and using one arm of the forceps, the pellet was advanced toward the temporal end of the pocket. Antibiotic ointment (erythromycin) was applied once to the operated eye, not only to prevent infection, but also to decrease irritation of the irregular ocular surface. […] On post-operative day 5, mice were anesthetized with methoxyflurane, the eyes were proptosed, and the maximum vessel length (VL) of the neovascularization zone extending from the base of the limbal vascular plexus toward the pellet was measured with a linear reticule through the slit lamp. The contiguous circumferential zone of neovascularization (CH) was measured as clock hours with a 360 degree reticule. […] The area of neovascularization was calculated according to the following formula: [formula] where A is area, CH is contiguous circumferential zone of neovascularization and VL is maximal vessel length.

rat mesengial cells = test: Sulfate and glycine incorporation into rat mesengial cell ECM; type: cell-based; conditions: for inhibition at 0.05 µg/mL: 50 ng/ml Halofuginone; for inhibition at 0.2 µg/mL: 200 ng/ml Halofuginone
Procedure: Rat […] grown to confluency, 24 hours after seeding. The cells were then cultured with or without Halofuginone in the presence of either Na2^35SO4 (FIGS. 9A and 9B) or ^14C-glycine (FIGS. 9C and 9D). Eight days after sending, the cell layer was dissolved to expose the underlying ECM, washed and digested with collagenase to determine the effect of Halofuginone on CDP proteins, as shown in FIGS. 9A and 9C. The remaining material was digested with trypsin and subjected to β-scintillation counting to determine the effect of halofuginone on NCDP proteins, as shown in FIGS. 9B and 9D.

[3] = system: bovine aortic endothelial cells; test: Organization of endothelial cells into capillary-like networks in type I collagen gel; type: cell-based; conditions: 0.1 μg/ml Halofuginone; bFGF 1 ng/ml and heparin 1 μg/ml
Procedure: Type I collagen was prepared from the tail tendons of adult Sprague Dawley rats. Briefly, the collagen fibers were solubilized by a slow stirring for 48 h at 4° C. in a sterile, 1/1000 (w/v) acetic acid solution (300 ml for 1 g of collagen). The resulting solution was filtered through a sterile triple gauze and centrifuged at 16,000 g for 1 h at 4° C. The supernatant was then extensively dialyzed against 1/10. DMEM and stored at 4° C. The collagen matrix gel was obtained by simultaneously raising the pH and ionic strength of the collagen solution. For this purpose, 7 vol of collagen solution were quickly mixed with 1 vol of 10X Minimum Essential Medium and 2 vol sodium bicarbonate (0.15 M) [R. F. Nicosa and A. Ottinetti, Lab. Invest, Vol. 63, pp. 115-122 (1990)]. Bovine aortic endothelial cells were seeded into 16 mm wells of a 24-well plate and allowed to grow for 24 h, to obtain a subconfluent monolayer. The culture medium was then removed and 0.4 ml of the cold collagen mixture described above were poured on top of the cell monolayer and allowed to polymerize for 10 min at 37° C. […] The reorganization of the endothelial cell monolayer was monitored and photographed with a Zeiss inverted phase contrast photomicroscope [K. Monesano, et al., J. Cell Biol., Vol. 97, pp. 1648-1652 (1983)].

[4] = individual mice, post-operative day 5

O=C(CC1NCCCC1O)Cn1cnc2cc(Br)c(Cl)cc2c1=O (stereo not shown) [Halofuginone]
incorporation of sulfate, proline, lysine and glycine into both CDP and NCDP [1]: inhibited
inhibition of neovascularization area vs control [2]: about 29%
average area of neovascularization ([2]; n=7, calculated from CH and VL): 1.90 mm^2
CH (contiguous circumferential zone of neovascularization) [2, 4]: 3.5 clock hours and 3 clock hours (3×) and 2.5 clock hours and 4 clock hours and 1 clock hours
VL (maximum vessel length of the neovascularization zone) [2, 4]: 1 (3×) and 1.1 and 1.2 and 0.9
inhibition at 0.05 µg/mL (rat mesengial cells; read-out: inhibition of glycine incorporation, CDP proteins): ~80%
inhibition at 0.05 µg/mL (rat mesengial cells; read-out: inhibition of glycine incorporation, NCDP proteins): ~80%
inhibition at 0.2 µg/mL (rat mesengial cells; read-out: inhibition of sulfate incorporation, CDP proteins): ~30%
inhibition at 0.2 µg/mL (rat mesengial cells; read-out: inhibition of sulfate incorporation, NCDP proteins): ~70%
invasion of endothelial cells into collagen gel and organization into capillary-like tubes [3]: completely inhibited

From US6420371B1, “Quinazolinone-containing pharmaceutical compositions for prevention of neovascularization and for treating malignancies” (Madasit Medical Research Services & Development Co., Ltd., priority 1997, dated 2002)
